Results on 9 molecules are retold here after BindingDB's records for doi:10.1016/S0960-894X(97)00319-3 (1997).

The nature of this assay: Inhibition of [125I]ET1 binding to porcine kidney inner medulla membranes.

As to `CCOc1ccc2c(c1)c(-c1ccc(OC)cc1)c(C(=O)O)c(=O)n2Cc1cc(OC)ccc1OC` [1-(2,5-Dimethoxy-benzyl)-6-ethoxy-4-(4-methoxy-phenyl)-2-oxo-1,2-dihydro-quinoline-3-carboxylic acid], the IC50 came to 200 nM.

Molecule `CCOc1ccc2c(c1)c(-c1ccc(OC)cc1OC)c(C(=O)O)c(=O)n2Cc1ccccc1OC` [4-(2,4-Dimethoxy-phenyl)-6-ethoxy-1-(2-methoxy-benzyl)-2-oxo-1,2-dihydro-quinoline-3-carboxylic acid] returned an IC50 of 540 nM.

`COc1ccccc1Cn1c(=O)c(C(=O)O)c(-c2ccc3c(c2)OCO3)c2ccccc21` [4-Benzo[1,3]dioxol-5-yl-1-(2-methoxy-benzyl)-2-oxo-1,2-dihydro-quinoline-3-carboxylic acid] showed an IC50 of 940 nM.

Molecule `COc1ccc(Cn2c(=O)c(C(=O)O)c(-c3ccc4c(c3)OCO4)c3ccccc32)cc1` [4-Benzo[1,3]dioxol-5-yl-1-(4-methoxy-benzyl)-2-oxo-1,2-dihydro-quinoline-3-carboxylic acid] displayed an IC50 of 6800 nM.

Consider `O=C(O)c1c(-c2ccc3c(c2)OCO3)c2ccccc2n(Cc2ccccc2)c1=O` [4-Benzo[1,3]dioxol-5-yl-1-benzyl-2-oxo-1,2-dihydro-quinoline-3-carboxylic acid], for which the IC50 is more than 10000 nM.

With `COc1ccccc1Cn1c(=O)c(C(=O)O)c(-c2ccc3c(c2)OCO3)c2c(OC)c(OC)ccc21` [4-Benzo[1,3]dioxol-5-yl-5,6-dimethoxy-1-(2-methoxy-benzyl)-2-oxo-1,2-dihydro-quinoline-3-carboxylic acid], the IC50 is 2600 nM.

In the case of `CCOc1ccc2c(c1)c(-c1ccc3c(c1)OCO3)c(C(=O)O)c(=O)n2Cc1ccccc1OC` [4-Benzo[1,3]dioxol-5-yl-6-ethoxy-1-(2-methoxy-benzyl)-2-oxo-1,2-dihydro-quinoline-3-carboxylic acid], the IC50 was 450 nM.

Regarding `CCc1ccc2c(c1)c(-c1ccc3c(c1)OCO3)c(C(=O)O)c(=O)n2Cc1ccccc1OC` [4-Benzo[1,3]dioxol-5-yl-6-ethyl-1-(2-methoxy-benzyl)-2-oxo-1,2-dihydro-quinoline-3-carboxylic acid], the IC50 is 1300 nM.

`CCOc1ccc2c(c1)c(-c1ccc(OC)cc1)c(C(=O)O)c(=O)n2Cc1ccccc1OC` [6-Ethoxy-1-(2-methoxy-benzyl)-4-(4-methoxy-phenyl)-2-oxo-1,2-dihydro-quinoline-3-carboxylic acid]: the IC50 came out at 500 nM.

As usually defined, the IC50 is the concentration needed to halve the response being measured.
